ChEMBL document CHEMBL1152136, “2-Trifluoroacetylthiophene oxadiazoles as potent and selective class II human histone deacetylase inhibitors” (Bioorg Med Chem Lett, 2008)

Experiments:
[1] = molecular target: T1, Protein deacetylase HDAC6 (Homo sapiens, UniProt Q9UBN7); assay: Inhibition of HDAC6
T1 sequence (Q9UBN7 whole entry): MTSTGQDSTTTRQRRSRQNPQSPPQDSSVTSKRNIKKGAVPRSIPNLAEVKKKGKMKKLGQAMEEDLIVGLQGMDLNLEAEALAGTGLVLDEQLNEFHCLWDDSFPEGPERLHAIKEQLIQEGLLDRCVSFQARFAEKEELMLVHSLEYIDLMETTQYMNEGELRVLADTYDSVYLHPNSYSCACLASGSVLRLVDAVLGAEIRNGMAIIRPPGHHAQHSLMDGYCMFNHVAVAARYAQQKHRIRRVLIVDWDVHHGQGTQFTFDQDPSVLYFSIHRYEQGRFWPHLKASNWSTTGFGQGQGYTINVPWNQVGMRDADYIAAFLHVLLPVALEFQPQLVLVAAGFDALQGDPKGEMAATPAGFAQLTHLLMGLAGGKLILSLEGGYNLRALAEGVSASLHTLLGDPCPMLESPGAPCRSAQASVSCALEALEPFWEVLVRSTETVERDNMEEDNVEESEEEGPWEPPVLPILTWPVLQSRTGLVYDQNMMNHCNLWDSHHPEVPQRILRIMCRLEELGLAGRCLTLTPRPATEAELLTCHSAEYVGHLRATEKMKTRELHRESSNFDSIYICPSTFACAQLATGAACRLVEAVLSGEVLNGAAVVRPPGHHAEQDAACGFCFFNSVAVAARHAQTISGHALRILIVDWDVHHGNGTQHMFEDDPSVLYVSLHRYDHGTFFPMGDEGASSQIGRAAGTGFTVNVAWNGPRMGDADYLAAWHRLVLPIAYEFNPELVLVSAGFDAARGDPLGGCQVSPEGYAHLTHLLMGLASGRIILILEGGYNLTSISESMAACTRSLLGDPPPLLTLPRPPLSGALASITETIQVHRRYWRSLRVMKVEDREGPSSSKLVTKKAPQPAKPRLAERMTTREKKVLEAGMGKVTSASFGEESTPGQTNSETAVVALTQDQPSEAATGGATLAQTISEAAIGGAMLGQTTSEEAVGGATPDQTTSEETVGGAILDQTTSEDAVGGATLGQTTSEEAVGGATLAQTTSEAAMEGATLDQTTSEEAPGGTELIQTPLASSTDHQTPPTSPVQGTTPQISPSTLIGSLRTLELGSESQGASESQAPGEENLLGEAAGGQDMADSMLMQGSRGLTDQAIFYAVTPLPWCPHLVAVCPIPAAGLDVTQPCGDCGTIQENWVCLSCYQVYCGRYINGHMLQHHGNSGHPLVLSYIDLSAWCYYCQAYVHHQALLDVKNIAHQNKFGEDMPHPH

Histone deacetylase 3 = Histone deacetylase 3 (Homo sapiens, UniProt O15379); assay: Inhibition of HDAC3
Histone deacetylase 4 = Histone deacetylase 4 (Homo sapiens, UniProt P56524); assay: Inhibition of His-tagged HDAC4 catalytic domain expressed in Escherichia coli
[2] = Metabolic stability in S9 fraction of human HCT116 cells assessed as half life in presence of NADPH and regenerating system; format: ADME, cell-based, HCT-116
Histone deacetylase 1 = Histone deacetylase 1 (Homo sapiens, UniProt Q13547); assay: Inhibition of HDAC1
[3] = Selectivity for His-tagged HDAC4 catalytic domain over HDAC1
[4] = Metabolic stability in human HCT116 cells assessed as half life at 5 uM in presence of 10% FBS; format: ADME, cell-based, HCT-116
[5] = molecular target: T1, Protein deacetylase HDAC6; assay: Inhibition of HDAC6 in human HCT116 cells assessed as inhibition of alpha-tubulin deacetylation; format: cell-based, HCT-116

Histone deacetylase 1, sequence (Q13547 whole entry, the tested form may be a part): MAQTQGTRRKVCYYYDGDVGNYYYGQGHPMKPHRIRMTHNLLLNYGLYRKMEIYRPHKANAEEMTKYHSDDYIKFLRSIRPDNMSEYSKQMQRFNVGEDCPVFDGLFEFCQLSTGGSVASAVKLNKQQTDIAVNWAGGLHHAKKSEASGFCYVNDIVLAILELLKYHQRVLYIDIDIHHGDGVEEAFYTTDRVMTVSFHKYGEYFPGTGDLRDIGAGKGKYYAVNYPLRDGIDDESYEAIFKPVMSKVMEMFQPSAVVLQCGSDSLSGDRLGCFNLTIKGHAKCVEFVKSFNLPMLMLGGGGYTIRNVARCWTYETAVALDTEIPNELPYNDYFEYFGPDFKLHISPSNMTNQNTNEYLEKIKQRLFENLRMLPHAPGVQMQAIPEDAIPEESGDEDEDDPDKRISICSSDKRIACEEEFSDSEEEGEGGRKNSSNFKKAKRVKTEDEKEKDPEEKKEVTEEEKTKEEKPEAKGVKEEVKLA
Histone deacetylase 4, sequence (P56524 whole entry, the tested form may be a part): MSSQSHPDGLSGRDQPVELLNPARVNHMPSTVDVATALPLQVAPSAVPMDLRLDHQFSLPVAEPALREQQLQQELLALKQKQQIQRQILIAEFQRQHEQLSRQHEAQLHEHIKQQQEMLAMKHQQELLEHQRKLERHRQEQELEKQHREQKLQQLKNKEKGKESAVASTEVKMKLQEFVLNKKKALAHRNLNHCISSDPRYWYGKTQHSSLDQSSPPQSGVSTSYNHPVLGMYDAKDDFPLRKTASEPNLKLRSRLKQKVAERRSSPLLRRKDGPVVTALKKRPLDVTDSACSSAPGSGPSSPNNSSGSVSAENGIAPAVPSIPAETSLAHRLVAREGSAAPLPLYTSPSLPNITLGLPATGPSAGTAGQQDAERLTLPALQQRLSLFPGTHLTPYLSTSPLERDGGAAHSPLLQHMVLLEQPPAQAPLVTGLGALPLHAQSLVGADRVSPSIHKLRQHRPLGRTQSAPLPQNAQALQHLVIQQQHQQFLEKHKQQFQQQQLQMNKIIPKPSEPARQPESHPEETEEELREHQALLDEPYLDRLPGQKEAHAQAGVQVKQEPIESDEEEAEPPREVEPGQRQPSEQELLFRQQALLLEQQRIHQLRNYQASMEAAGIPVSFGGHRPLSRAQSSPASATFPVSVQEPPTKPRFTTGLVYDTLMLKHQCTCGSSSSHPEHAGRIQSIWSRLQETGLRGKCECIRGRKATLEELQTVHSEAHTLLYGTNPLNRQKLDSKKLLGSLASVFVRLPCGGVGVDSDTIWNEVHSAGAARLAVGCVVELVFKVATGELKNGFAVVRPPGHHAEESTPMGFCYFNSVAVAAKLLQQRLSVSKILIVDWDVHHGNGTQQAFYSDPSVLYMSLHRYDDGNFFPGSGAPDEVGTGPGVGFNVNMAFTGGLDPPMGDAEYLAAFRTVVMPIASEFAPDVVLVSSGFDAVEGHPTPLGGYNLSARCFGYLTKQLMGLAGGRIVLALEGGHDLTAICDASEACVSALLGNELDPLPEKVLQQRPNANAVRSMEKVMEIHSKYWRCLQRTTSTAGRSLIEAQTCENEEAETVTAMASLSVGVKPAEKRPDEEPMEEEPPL
Histone deacetylase 3, sequence (O15379 whole entry, the tested form may be a part): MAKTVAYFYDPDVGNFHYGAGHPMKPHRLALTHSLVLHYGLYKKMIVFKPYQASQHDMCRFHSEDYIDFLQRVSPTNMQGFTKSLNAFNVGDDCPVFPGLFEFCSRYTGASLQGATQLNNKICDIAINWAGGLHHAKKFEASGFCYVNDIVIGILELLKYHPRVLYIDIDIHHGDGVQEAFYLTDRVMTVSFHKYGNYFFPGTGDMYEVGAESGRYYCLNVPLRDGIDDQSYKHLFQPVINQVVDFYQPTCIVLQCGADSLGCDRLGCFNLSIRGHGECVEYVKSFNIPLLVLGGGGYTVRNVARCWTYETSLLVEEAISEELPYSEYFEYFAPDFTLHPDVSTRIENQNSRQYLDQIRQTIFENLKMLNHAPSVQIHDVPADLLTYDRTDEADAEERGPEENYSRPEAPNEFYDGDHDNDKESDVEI

O=C1COc2ccccc2N1Cc1noc(-c2ccc(C(=O)C(F)(F)F)s2)n1
IC50 [1]: 410 nM | IC50 (Histone deacetylase 3): > 1000 nM | IC50 (Histone deacetylase 4): 15 nM | half-life [2]: 25 min | IC50 (Histone deacetylase 1): 1170 nM | Ratio IC50 [3]: > 75

CS(=O)(=O)Cc1noc(-c2ccc(C(=O)C(F)(F)F)s2)n1
IC50 [1]: 320 nM | IC50 (Histone deacetylase 3): > 1000 nM | half-life at 5 µM [4]: 780 min | IC50 (Histone deacetylase 4): 30 nM | half-life [2]: > 120 min | IC50 (Histone deacetylase 1): 2470 nM | Ratio IC50 [3]: > 70 | IC50 [5]: 640 nM

O=C(c1ccc(-c2nc(-c3cccnc3)no2)s1)C(F)(F)F
IC50 [1]: 840 nM | IC50 (Histone deacetylase 4): 70 nM | IC50 (Histone deacetylase 1): 2200 nM

O=C(NCc1ccccc1)c1ccc(C(=O)C(F)(F)F)s1
IC50 [1]: 370 nM | IC50 (Histone deacetylase 3): 520 nM | IC50 (Histone deacetylase 4): 243 nM | IC50 (Histone deacetylase 1): 467 nM

O=C(c1ccc(-c2ncc(-c3ccccc3)s2)s1)C(F)(F)F
IC50 [1]: 1350 nM | IC50 (Histone deacetylase 4): 1500 nM | IC50 (Histone deacetylase 1): > 10000 nM

O=C(c1ccc(-c2nc(-c3ccncc3)no2)s1)C(F)(F)F
IC50 [1]: 570 nM | IC50 (Histone deacetylase 4): 590 nM | IC50 (Histone deacetylase 1): > 10000 nM

O=C(Cc1noc(-c2ccc(C(=O)C(F)(F)F)s2)n1)N1CCCC1
IC50 [1]: 710 nM | IC50 (Histone deacetylase 4): 60 nM | IC50 (Histone deacetylase 1): 5900 nM | Ratio IC50 [3]: > 75

O=C(c1ccc(-c2nc(-c3ccc(F)cc3)no2)s1)C(F)(F)F
IC50 [1]: 270 nM | IC50 (Histone deacetylase 3): > 1000 nM | IC50 (Histone deacetylase 4): 220 nM | IC50 (Histone deacetylase 1): 5900 nM

O=C(c1ccc(-c2nc(Cc3cccs3)no2)s1)C(F)(F)F
IC50 [1]: 170 nM | IC50 (Histone deacetylase 3): 630 nM | IC50 (Histone deacetylase 4): 15 nM | half-life [2]: 35 min | IC50 (Histone deacetylase 1): 990 nM | Ratio IC50 [3]: 70

CC(C)(C)c1ccc(-c2noc(-c3ccc(C(=O)C(F)(F)F)s3)n2)cc1
IC50 [1]: 3540 nM | IC50 (Histone deacetylase 3): > 1000 nM | IC50 (Histone deacetylase 4): > 2000 nM | IC50 (Histone deacetylase 1): 16600 nM

Cc1ccc(-c2noc(-c3ccc(C(=O)C(F)(F)F)s3)n2)cc1
IC50 [1]: 860 nM | IC50 (Histone deacetylase 4): 110 nM | IC50 (Histone deacetylase 1): 6800 nM

O=C(c1ccc(-c2nc(-c3ccccn3)no2)s1)C(F)(F)F
IC50 [1]: 500 nM | IC50 (Histone deacetylase 4): 90 nM | IC50 (Histone deacetylase 1): 2800 nM

O=C(c1ccc(-c2nc(-c3cccs3)no2)s1)C(F)(F)F
IC50 [1]: 670 nM | IC50 (Histone deacetylase 4): 95 nM | IC50 (Histone deacetylase 1): 2900 nM

CCNC(=O)c1ccc(C(=O)C(F)(F)F)s1
IC50 (Histone deacetylase 3): > 10000 nM

O=C(c1ccc(-c2nc(CS(=O)(=O)Cc3ccc(F)cc3)no2)s1)C(F)(F)F
IC50 [1]: 700 nM | IC50 (Histone deacetylase 3): > 1000 nM | half-life at 5 µM [4]: 330 min | IC50 (Histone deacetylase 4): 60 nM | half-life [2]: 35 min | IC50 (Histone deacetylase 1): 6550 nM

Cc1noc(-c2ccc(C(=O)C(F)(F)F)s2)n1
IC50 [1]: 650 nM | IC50 (Histone deacetylase 3): 7100 nM | IC50 (Histone deacetylase 4): 75 nM | half-life [2]: > 120 min | IC50 (Histone deacetylase 1): 7600 nM

O=C(c1ccc(-c2nc(COc3ccc(-c4nnco4)cc3)no2)s1)C(F)(F)F
half-life [2]: 18 min | IC50 (Histone deacetylase 1): 4800 nM

O=C(c1ccc(-c2nc(-c3cccc(C(F)(F)F)c3)no2)s1)C(F)(F)F
IC50 [1]: 2450 nM | IC50 (Histone deacetylase 3): > 1000 nM | IC50 (Histone deacetylase 4): 320 nM | IC50 (Histone deacetylase 1): 17500 nM

O=C(c1ccc(-c2nnc(-c3cccs3)o2)s1)C(F)(F)F
IC50 [1]: 160 nM | IC50 (Histone deacetylase 3): 500 nM | IC50 (Histone deacetylase 4): 450 nM | IC50 (Histone deacetylase 1): 2600 nM

O=C(c1ccc(-c2nc(-c3ccc(C(F)(F)F)cc3)no2)s1)C(F)(F)F
IC50 [1]: 11000 nM | IC50 (Histone deacetylase 4): 200 nM | IC50 (Histone deacetylase 1): > 10000 nM

Cc1ccc(-c2nnc(-c3ccc(C(=O)C(F)(F)F)s3)o2)cc1
IC50 [1]: 600 nM | IC50 (Histone deacetylase 3): > 1000 nM | IC50 (Histone deacetylase 4): 270 nM | IC50 (Histone deacetylase 1): 1800 nM

CCCS(=O)(=O)Cc1noc(-c2ccc(C(=O)C(F)(F)F)s2)n1
IC50 [1]: 240 nM | IC50 (Histone deacetylase 3): > 1000 nM | half-life at 5 µM [4]: 720 min | IC50 (Histone deacetylase 4): 30 nM | half-life [2]: 45 min | IC50 (Histone deacetylase 1): 2220 nM | Ratio IC50 [3]: > 70 | IC50 [5]: 500 nM

O=C(c1ccc(-c2nc(CS(=O)(=O)c3cccs3)no2)s1)C(F)(F)F
IC50 [1]: 520 nM | IC50 (Histone deacetylase 3): > 1000 nM | half-life at 5 µM [4]: 360 min | IC50 (Histone deacetylase 4): 35 nM | half-life [2]: 44 min | IC50 (Histone deacetylase 1): 3890 nM | Ratio IC50 [3]: > 100

O=C(c1ccc(-c2nc(-c3ccccc3)no2)s1)C(F)(F)F
IC50 [1]: 580 nM | IC50 (Histone deacetylase 3): > 1000 nM | IC50 (Histone deacetylase 4): 110 nM | IC50 (Histone deacetylase 1): 7400 nM

CN(Cc1ccccc1)C(=O)c1ccc(C(=O)C(F)(F)F)s1
half-life [2]: 15 min

Cc1cccc(-c2noc(-c3ccc(C(=O)C(F)(F)F)s3)n2)c1
IC50 [1]: 680 nM | IC50 (Histone deacetylase 3): > 1000 nM | IC50 (Histone deacetylase 4): 280 nM | IC50 (Histone deacetylase 1): 6540 nM

O=C(c1ccc(-c2nc(-c3ccc(F)cc3F)no2)s1)C(F)(F)F
IC50 [1]: 580 nM | IC50 (Histone deacetylase 3): > 1000 nM | IC50 (Histone deacetylase 4): 120 nM | half-life [2]: > 120 min | IC50 (Histone deacetylase 1): 4200 nM

O=C(c1ccc(-c2nc(-c3ccc(Cl)cc3Cl)no2)s1)C(F)(F)F
IC50 [1]: 3000 nM | IC50 (Histone deacetylase 4): 240 nM | IC50 (Histone deacetylase 1): > 5000 nM

O=C(c1ccc(-c2nnc(-c3ccccc3)o2)s1)C(F)(F)F
IC50 [1]: 330 nM | IC50 (Histone deacetylase 3): 500 nM | IC50 (Histone deacetylase 4): 420 nM | IC50 (Histone deacetylase 1): 2970 nM
